Experimental data as given in article PMC8137473, “Preclinical trial of a MAP4K4 inhibitor to reduce infarct size in the pig: does cardioprotection in human stem cell-derived myocytes predict success in large mammals?” (Basic Research in Cardiology, 2021).

Legend:
MAP4K4 = MAP4K4 (Homo sapiens, UniProt O95819); test: cell-free biochemical assay, MAP4K4 inhibition
Excerpt: DMX-10001, a rapidly hydrolyzed phosphate pro-drug of DMX-5804, was produced by Domainex Ltd, by a modification of the latter’s synthetic route, attaching a hydrolysable phosphate group via a linker to the core of DMX-5804 (Fig. 1a). This removes a key hydrogen bonding group and prevents DMX-10001 from binding to the hinge region of the MAP4K4 kinase domain. […] Furthermore, this modest value is likely driven by minute levels of DMX-5804 either present in the sample or generated during by hydrolysis during the assay.

porcine model of MI = test: efficacy study: hemodynamics and LV function; format: in vivo, swine; settings: for 2-D ejection fraction / LV end-diastolic lumen surface / LV end-diastolic wall thickness (infarct region) / LV end-systolic lumen surface / LV end-systolic wall thickness (infarct region) / Systolic Wall thickening (infarct region): echocardiography; for DAP / HR / MAP / SAP: fluid-filled catheter
Experimental: Next, an efficacy study was performed, in adherence to published guidelines for rigor and reproducibility, to evaluate the postulated benefit of DMX-10001 in a large-mammal model of MI. Briefly, 36 closed-chest swine (41 ± 2 kg) were subjected to regional ischemia by occluding the left anterior descending coronary artery (LAD) distal to the first diagonal branch for 60 min, followed by 24 h of reperfusion. Treatment with DMX-10001 (60 mg/kg/h for 0.5 h, followed by 17 mg/kg/h for 23.5 h) versus the vehicle was initiated 20 min prior to reperfusion and continued for 1 day. After 2 h of reperfusion, animals were allowed to recover from anesthesia. At 24 h of reperfusion, the infarct area (IA), area of no-reflow (NR), and area at ischemic risk (AAR) were determined. Transthoracic short-axis B-mode echocardiograms and measurements of LV pressure and its first derivative (LVdP/dt) were obtained at baseline and at 24 h of reperfusion. LV pressure–volume measurements were obtained at 24 h of reperfusion. Heart-type fatty acid binding protein (hFABP) release was measured, as a biomarker that correlates with IS and NR in swine at least as well as cardiac troponin I [30].
A transthoracic short-axis B-mode echocardiogram (ZS3, Zonare Medical Systems, Mountain View, CA) was performed to determine LV contractile performance. LV pressure and its first derivative (LVdP/dt) were determined using a micro-manometer-tipped catheter (SPR-350S, Millar Inc., Houston, TX), before infarct induction and again before killing. Terminal LV pressure–volume measurements were also performed, using a 7F conductance catheter (CD Leycom, Hengelo, The Netherlands) advanced into the LV [32]. After calibration of the system, pressure–volume loops were recorded during a breath hold.
Hemodynamic and LV global function were recorded and digitized online using a three-channel data acquisition program (ATCODAS, Dataq Instruments Inc., Akron OH) and stored on a computer for off-line analysis with a program written in MATLAB (Mathworks Inc., Natick, MA). A minimum of 10 s was selected for analysis of the digitized hemodynamic signals. Pressure–volume-related data were recorded and stored on a computer for off-line analysis (CD Leycom, Hengelo, The Netherlands). Statistical significance (P < 0.05, two tailed) for changes was determined by two-way ANOVA (time point in protocol x treatment) for repeated measures, followed by post hoc testing with the Bonferonni multiple comparison test.

aqueous solubility = format: physicochemical
Experimental: The chemical structures of DMX-5804 and DMX-10001 are compared in Fig. 1a, highlighting the phosphate moiety of the pro-drug. The aqueous solubility of DMX-10001 was > 400-fold greater than that of DMX-5804, allowing it to be infused i.v. without prohibitive fluid volumes. Cleavage to DMX-5804 was detectable in rats within 5 min and largely complete within 60 min (Fig. 1b). Data from i.v. infusion at a range of dose levels in the pig were simultaneously fit to a three-compartment pharmacokinetic model. Plasma protein binding in pig was used to determine free drug levels (not shown). Various dosing regimens were simulated to avoid an initial spike in DMX-5804 whilst rapidly achieving the efficacious drug levels seen in mice after oral gavage (Fig. 1c).

[1] = Millar catheter, Day 1 Baseline
[2] = Millar catheter, Day 2 End of Reperfusion
[3] = conductance catheter, End of Reperfusion
[4] = Coronary artery occlusion 15 min
[5] = Coronary artery occlusion 40 min
[6] = Coronary artery occlusion 60 min

Chain of MAP4K4 (O95819 whole entry, species assumed, the tested form may be a part): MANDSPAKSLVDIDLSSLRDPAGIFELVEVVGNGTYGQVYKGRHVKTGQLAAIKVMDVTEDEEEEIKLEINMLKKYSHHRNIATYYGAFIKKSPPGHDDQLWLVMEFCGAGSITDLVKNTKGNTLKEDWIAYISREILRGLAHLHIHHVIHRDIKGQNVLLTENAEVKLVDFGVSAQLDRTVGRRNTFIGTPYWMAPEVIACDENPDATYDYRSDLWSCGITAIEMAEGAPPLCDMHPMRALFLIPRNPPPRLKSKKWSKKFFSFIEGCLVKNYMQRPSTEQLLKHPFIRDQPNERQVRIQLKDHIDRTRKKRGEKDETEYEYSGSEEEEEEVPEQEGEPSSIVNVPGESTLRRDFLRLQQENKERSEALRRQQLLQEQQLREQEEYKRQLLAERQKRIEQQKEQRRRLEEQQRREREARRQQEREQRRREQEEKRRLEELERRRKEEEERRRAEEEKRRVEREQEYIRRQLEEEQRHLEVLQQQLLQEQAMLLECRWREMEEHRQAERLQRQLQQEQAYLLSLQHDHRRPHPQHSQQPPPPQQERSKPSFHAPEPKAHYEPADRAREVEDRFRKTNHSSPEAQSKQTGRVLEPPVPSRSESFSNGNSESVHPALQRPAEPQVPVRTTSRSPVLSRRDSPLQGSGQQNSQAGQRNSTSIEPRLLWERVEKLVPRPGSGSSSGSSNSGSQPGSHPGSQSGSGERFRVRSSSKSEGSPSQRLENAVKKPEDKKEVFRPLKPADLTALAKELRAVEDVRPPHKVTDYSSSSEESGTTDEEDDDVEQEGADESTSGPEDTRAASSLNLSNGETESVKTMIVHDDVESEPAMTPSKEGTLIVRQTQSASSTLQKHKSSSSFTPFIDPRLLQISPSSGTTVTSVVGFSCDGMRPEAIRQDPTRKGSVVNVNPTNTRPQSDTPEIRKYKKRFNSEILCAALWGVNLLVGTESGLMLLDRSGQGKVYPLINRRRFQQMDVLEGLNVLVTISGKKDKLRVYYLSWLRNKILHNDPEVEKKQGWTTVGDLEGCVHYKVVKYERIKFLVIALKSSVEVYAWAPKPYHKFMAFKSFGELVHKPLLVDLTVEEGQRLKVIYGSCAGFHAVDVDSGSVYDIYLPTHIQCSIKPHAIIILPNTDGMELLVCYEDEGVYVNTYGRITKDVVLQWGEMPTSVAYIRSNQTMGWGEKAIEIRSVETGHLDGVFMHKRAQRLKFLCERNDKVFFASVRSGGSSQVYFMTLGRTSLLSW

difference in IC50 against MAP4K4, DMX-10001 vs DMX-5804 (MAP4K4): > 750 fold | IC50 (MAP4K4; cell-free biochemical assays, read-out: IC50 against MAP4K4): 2300 nM | aqueous solubility relative to that of DMX-5804 (aqueous solubility): > 400 fold
Compound: COCCOc1ccc(-c2cn(-c3ccccc3)c3ncn(COP(=O)(O)O)c(=O)c23)cc1 [DMX-10001]
LV dP/dtmax (porcine model of MI; [1]): 1830 mmHg/s | LV dP/dtmin (porcine model of MI; [1]): -2080 mmHg/s | LV dPdtP40 (porcine model of MI; [1]): 1640 mmHg/s | LV end-diastolic pressure (porcine model of MI; [1]): 8 mmHg | LV peak systolic pressure (porcine model of MI; [1]): 102 mmHg | tau (porcine model of MI; [1]): 34 ms | LV dP/dtmax (porcine model of MI; [2]): 920 mmHg/s | LV dP/dtmin (porcine model of MI; [2]): -1240 mmHg/s | LV dPdtP40 (porcine model of MI; [2]): 800 mmHg/s | LV end-diastolic pressure (porcine model of MI; [2]): 13 mmHg | LV peak systolic pressure (porcine model of MI; [2]): 78 mmHg | tau (porcine model of MI; [2]): 44 ms | 3-D ejection fraction (porcine model of MI; [3]): 34% | Cardiac output (porcine model of MI; [3]): 4.7 L/min | Heart rate (porcine model of MI; [3]): 109 beats/min | LV end-diastolic pressure (porcine model of MI; [3]): 10 mmHg | LV end-diastolic volume (porcine model of MI; [3]): 138 mL | LV end-systolic volume (porcine model of MI; [3]): 96 mL | LV peak-systolic pressure (porcine model of MI; [3]): 73 mmHg | Stroke volume (porcine model of MI; [3]): 45 mL/beat | tau (porcine model of MI; [3]): 28 ms | 2-D ejection fraction (porcine model of MI; Day 1 Baseline): 44% | LV end-diastolic lumen surface (porcine model of MI; Day 1 Baseline): 1843 mm^2 | LV end-diastolic wall thickness (infarct region) (porcine model of MI; Day 1 Baseline): 7.4 mm | LV end-systolic lumen surface (porcine model of MI; Day 1 Baseline): 1034 mm^2 | LV end-systolic wall thickness (infarct region) (porcine model of MI; Day 1 Baseline): 10.7 mm | Systolic Wall thickening (infarct region) (porcine model of MI; Day 1 Baseline): 49% | 2-D ejection fraction (porcine model of MI; Day 2 End of Reperfusion): 25% | LV end-diastolic lumen surface (porcine model of MI; Day 2 End of Reperfusion): 1916 mm^2 | LV end-diastolic wall thickness (infarct region) (porcine model of MI; Day 2 End of Reperfusion): 8.5 mm | LV end-systolic lumen surface (porcine model of MI; Day 2 End of Reperfusion): 1435 mm^2 | LV end-systolic wall thickness (infarct region) (porcine model of MI; Day 2 End of Reperfusion): 8.7 mm | Systolic Wall thickening (infarct region) (porcine model of MI; Day 2 End of Reperfusion): 3% | effect on hemodynamic and LV functional end-points after ischemia–reperfusion (porcine model of MI; efficacy study): neither worsened nor enhanced | DAP (porcine model of MI; Baseline): 75 ± 15 mmHg | HR (porcine model of MI; Baseline): 124 ± 33 bpm | MAP (porcine model of MI; Baseline): 89 ± 16 mmHg | SAP (porcine model of MI; Baseline): 107 ± 14 mmHg | DAP (porcine model of MI; [4]): 76 ± 28 mmHg | HR (porcine model of MI; [4]): 89 ± 40 bpm | MAP (porcine model of MI; [4]): 91 ± 30 mmHg | SAP (porcine model of MI; [4]): 110 ± 34 mmHg | DAP (porcine model of MI; [5]): 58 ± 16 mmHg | HR (porcine model of MI; [5]): 78 ± 31 bpm | MAP (porcine model of MI; [5]): 71 ± 17 mmHg | SAP (porcine model of MI; [5]): 88 ± 18 mmHg | DAP (porcine model of MI; [6]): 52 ± 10 mmHg | HR (porcine model of MI; [6]): 71 ± 21 bpm | MAP (porcine model of MI; [6]): 65 ± 11 mmHg | SAP (porcine model of MI; [6]): 82 ± 13 mmHg | DAP (porcine model of MI; Reperfusion (day 1) 10 min): 61 ± 13 mmHg | HR (porcine model of MI; Reperfusion (day 1) 10 min): 99 ± 22 bpm | MAP (porcine model of MI; Reperfusion (day 1) 10 min): 74 ± 13 mmHg | SAP (porcine model of MI; Reperfusion (day 1) 10 min): 91 ± 13 mmHg | DAP (porcine model of MI; Reperfusion (day 1) 30 min): 63 ± 11 mmHg | HR (porcine model of MI; Reperfusion (day 1) 30 min): 120 ± 31 bpm | MAP (porcine model of MI; Reperfusion (day 1) 30 min): 73 ± 11 mmHg | SAP (porcine model of MI; Reperfusion (day 1) 30 min): 88 ± 11 mmHg | DAP (porcine model of MI; Reperfusion (day 1) 120 min): 62 ± 9 mmHg | HR (porcine model of MI; Reperfusion (day 1) 120 min): 94 ± 26 bpm | MAP (porcine model of MI; Reperfusion (day 1) 120 min): 73 ± 9 mmHg | SAP (porcine model of MI; Reperfusion (day 1) 120 min): 87 ± 10 mmHg | DAP (porcine model of MI; Reperfusion (day 2) 22h 40 min): 56 ± 13 mmHg | HR (porcine model of MI; Reperfusion (day 2) 22h 40 min): 112 ± 24 bpm | MAP (porcine model of MI; Reperfusion (day 2) 22h 40 min): 67 ± 13 mmHg | SAP (porcine model of MI; Reperfusion (day 2) 22h 40 min): 80 ± 13 mmHg | DAP (porcine model of MI; Reperfusion (day 2) 23h 40 min): 62 ± 17 mmHg | HR (porcine model of MI; Reperfusion (day 2) 23h 40 min): 103 ± 14 bpm | MAP (porcine model of MI; Reperfusion (day 2) 23h 40 min): 75 ± 18 mmHg | SAP (porcine model of MI; Reperfusion (day 2) 23h 40 min): 91 ± 20 mmHg
